From ChEMBL document CHEMBL2434949, “Evaluation of licorice flavonoids as protein tyrosine phosphatase 1B inhibitors” (Bioorg Med Chem Lett, 2013)
The source made the active and inactive calls. The calls are words filed in the database; no cut-off is given here.

Experiments:
[1] = molecular target: T1, Tyrosine-protein phosphatase non-receptor type 1 (Homo sapiens) (UniProt P18031); assay: Inhibition of PTP1B (unknown origin) using p-nitrophenyl phosphate as substrate at 100 uM
T1 sequence (whole entry): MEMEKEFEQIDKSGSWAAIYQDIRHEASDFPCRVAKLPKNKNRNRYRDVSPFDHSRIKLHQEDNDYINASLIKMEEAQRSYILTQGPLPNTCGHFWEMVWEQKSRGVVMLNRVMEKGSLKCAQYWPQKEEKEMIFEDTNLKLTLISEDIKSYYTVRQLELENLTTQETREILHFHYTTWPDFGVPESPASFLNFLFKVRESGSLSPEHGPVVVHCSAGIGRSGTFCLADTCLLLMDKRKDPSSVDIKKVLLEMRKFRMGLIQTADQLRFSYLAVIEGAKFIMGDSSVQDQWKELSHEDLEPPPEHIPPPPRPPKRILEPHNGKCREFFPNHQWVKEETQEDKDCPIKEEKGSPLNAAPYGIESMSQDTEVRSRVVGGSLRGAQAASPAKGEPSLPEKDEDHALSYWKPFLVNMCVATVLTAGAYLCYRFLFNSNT

[2] = molecular target: T2, Tyrosine-protein phosphatase non-receptor type 1 (Homo sapiens, UniProt P18031); assay: Inhibition of PTP1B (unknown origin) using p-nitrophenyl phosphate as substrate
T2 sequence (P18031 whole entry): T1 sequence (whole entry)

[3] = molecular target: T1, Tyrosine-protein phosphatase non-receptor type 1 (Homo sapiens); assay: Mixed type inhibition of PTP1B (unknown origin) using p-nitrophenyl phosphate as substrate by Lineweaver-Burk plot analysis
[4] = molecular target: T3, Tyrosine-protein phosphatase non-receptor type 2 (Homo sapiens) (UniProt P17706); assay: Inhibition of TCPTP (unknown origin) at 100 uM
T3 sequence (whole entry): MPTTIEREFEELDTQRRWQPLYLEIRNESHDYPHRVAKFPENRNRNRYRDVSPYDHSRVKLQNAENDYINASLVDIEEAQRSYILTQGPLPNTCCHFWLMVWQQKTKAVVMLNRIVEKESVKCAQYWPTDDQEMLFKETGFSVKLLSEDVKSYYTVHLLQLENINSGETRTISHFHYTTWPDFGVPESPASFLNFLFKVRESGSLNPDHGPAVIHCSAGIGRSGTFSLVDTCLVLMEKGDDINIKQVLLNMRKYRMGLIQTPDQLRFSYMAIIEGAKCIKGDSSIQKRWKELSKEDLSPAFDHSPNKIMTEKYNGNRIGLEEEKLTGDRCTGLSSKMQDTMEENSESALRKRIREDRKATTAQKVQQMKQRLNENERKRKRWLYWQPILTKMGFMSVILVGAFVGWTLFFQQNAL

[5] = molecular target: Dual specificity protein phosphatase 3 (Homo sapiens) (UniProt P51452); assay: Inhibition of VHR (unknown origin) at 100 uM
Dual specificity protein phosphatase 3 (Homo sapiens), sequence (P51452 whole entry, looked up): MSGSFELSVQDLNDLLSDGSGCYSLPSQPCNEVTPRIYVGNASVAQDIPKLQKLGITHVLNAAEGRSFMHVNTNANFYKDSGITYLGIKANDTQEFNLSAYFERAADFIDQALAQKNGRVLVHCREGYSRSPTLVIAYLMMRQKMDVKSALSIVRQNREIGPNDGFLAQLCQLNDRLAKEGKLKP

[6] = molecular target: T1, Tyrosine-protein phosphatase non-receptor type 1 (Homo sapiens)
Description: Competitive inhibition of PTP1B (unknown origin) using p-nitrophenyl phosphate as substrate by Lineweaver-Burk plot analysis

[7] = molecular target: T1, Tyrosine-protein phosphatase non-receptor type 1 (Homo sapiens); assay: Inhibition of PTP1B in human HepG2 cells assessed as increase of insulin-induced Akt phosphorylation at Ser473 at 20 to 100 uM after 5 mins by Western blotting; type: cell-based
[8] = molecular target: T1, Tyrosine-protein phosphatase non-receptor type 1 (Homo sapiens); assay: Non-competitive inhibition of PTP1B (unknown origin) using p-nitrophenyl phosphate as substrate by Lineweaver-Burk plot analysis

inhibition [1] | IC50 [2] | SMILES | also measured
< 50% |  | CC1(C)C=Cc2cc(C(=O)CC(=O)c3ccc(O)cc3)c(O)cc2O1 | 
< 50% |  | O=C(/C=C/c1ccc(O[C@@H]2O[C@H](CO)[C@@H](O)[C@H](O)[C@H]2O)cc1)c1ccc(O)cc1O | 
< 50% |  | COc1c(/C=C/C(=O)c2ccc(O)cc2)ccc(O)c1O | 
 | 27.3 µM | CC(C)=CCc1c(O)ccc(C(=O)/C=C/c2ccc(O)cc2)c1O [ISOBAVACHALCONE] | inhibition [3]: Active; inhibition [4]: 4%; inhibition [5]: > 70%
< 50% |  | COc1cc(O)ccc1/C=C/C(=O)c1ccc(O)cc1 | 
< 50% |  | COc1ccc2c(c1)O[C@H]1c3ccc(O)c(CC=C(C)C)c3OC[C@@H]21 | 
< 50% |  | COc1c(/C=C/C(=O)c2ccc(O)cc2)ccc2c1CC(C(C)(C)O)O2 (centres undefined) | 
 | 70 µM | COc1ccc(-c2coc3cc(O)c(OC)cc3c2=O)cc1O [ODORATIN] | 
< 50% |  | CC(C)=CCc1cc(-c2cc(=O)c3ccc(O)cc3o2)ccc1O | 
< 50% |  | CC(C)=CCc1c(O)ccc2c1oc(=O)c1c3ccc(O)cc3oc21 | 
< 50% |  | COc1ccc(-c2coc3cc(O)c(OC)cc3c2=O)cc1 | 
< 50% |  | O=c1cc(-c2ccc(O)cc2)oc2cc(O)ccc12 | 
< 50% |  | CC(C)=CCc1cc([C@@H]2CC(=O)c3ccc(O)cc3O2)ccc1O | 
 | 23.9 µM | CC(C)=CCc1c(O)ccc2c1O/C(=C\c1ccc(O)c(O)c1)C2=O [LICOAGROAURONE] | inhibition [4]: 4%; Kic [6]: 24 µM; inhibition [5]: 50%
 | 66.3 µM | CC1(C)C=Cc2c(ccc(-c3coc4cc(O)ccc4c3=O)c2O)O1 [GLABRONE] | 
 | 73.4 µM | CC1(C)C=Cc2c(ccc3c2OC[C@@H](c2ccc(O)cc2O)C3)O1 [GLABRIDIN] | 
< 50% |  | O=c1c(O[C@@H]2O[C@H](CO)[C@@H](O)[C@H](O)[C@H]2O)c(-c2ccc(O)cc2)oc2cc(O)cc(O)c12 | 
< 50% |  | O=C1C[C@@H](c2ccc(O)cc2)Oc2cc(O)ccc21 | 
 | 44.3 µM | CC1(C)C=Cc2cc(/C=C/C(=O)c3ccc(O)cc3O)ccc2O1 | 
 | 74.1 µM | CC1(C)C=Cc2c(ccc(C(=O)/C=C/c3ccc(O)cc3)c2O)O1 | 
 | 57 µM | COc1c(/C=C/C(=O)c2ccc(O)cc2)ccc(O)c1CC=C(C)C | 
 | 59.5 µM | COc1c(/C=C/C(=O)c2ccc(O)c(O)c2)ccc(O)c1CC=C(C)C | 
 | 36.2 µM | COc1c([C@H]2c3c(cc(O)c(O)c3OC)C=C(C(=O)c3ccc(O)cc3)[C@H]2C(=O)c2ccc(O)cc2)ccc(O)c1O (relative stereo) | 
< 50% |  | O=C1C[C@@H](c2ccc(O[C@@H]3O[C@H](CO)[C@@H](O)[C@H](O)[C@H]3O)cc2)Oc2cc(O)ccc21 | 

The next lines start with the compound.

SMILES | inhibition [1] | IC50 [2] | also measured
CC1(C)C=Cc2c(ccc3c2OC[C@@H](c2ccc(O)c4c2OC(C)(C)C=C4)C3)O1 | < 50% |  | 
O=c1c(O[C@@H]2O[C@H](CO)[C@@H](O)[C@H](O)[C@H]2O)c(-c2ccc(O)c(O)c2)oc2cc(O)cc(O)c12 | < 50% |  | 
CC(C)=CCc1cc([C@@H]2CC(=O)c3ccc(O)c(CC=C(C)C)c3O2)ccc1O [GLABROL] |  | 37.5 µM | 
CC(C)=CCc1cc(C(=O)CC(=O)c2cc(CC=C(C)C)c(O)cc2O)ccc1O |  | 32.6 µM | 
CC(C)=CCc1cc([C@]23Oc4cc(O)c(CC=C(C)C)cc4C(=O)[C@H]2[C@H]2c4ccc(O)cc4O[C@@H]4Oc5c(ccc(O)c5CC=C(C)C)[C@@]42O3)ccc1O [LICOAGRODIN] |  | 11.5 µM | inhibition [3]: Active; inhibition [4]: 4%; inhibition [5]: 50%
COc1ccc([C@@H]2COc3c(ccc4c3C=CC(C)(C)O4)C2)c(O)c1 | < 50% |  | 
CC(C)=CCc1c(O)ccc2c1O[C@H](c1ccc3c(c1)C=CC(C)(C)O3)CC2=O | < 50% |  | 
CC1(C)C=Cc2cc([C@@H]3CC(=O)c4ccc5c(c4O3)C=CC(C)(C)O5)ccc2O1 | < 50% |  | 
O=c1cc(-c2ccc(O)cc2)oc2c([C@@H]3O[C@H](CO)[C@@H](O)[C@H](O)[C@H]3O)c(O)c([C@@H]3OC[C@H](O)[C@H](O)[C@H]3O)c(O)c12 | < 50% |  | 
COc1c(CC=C(C)C)c(O)cc(O)c1-c1oc2cc(O)ccc2c1C |  |  | inhibition [4]: 4%; inhibition [5]: 35%
CC(C)=CCc1cc(C[C@@H](O)C(=O)c2cc(CC=C(C)C)c(O)cc2O)ccc1O |  | 90.5 µM | 
COc1cc(O[C@@H]2O[C@H](CO)[C@@H](O)[C@H](O)[C@H]2O)c(-c2coc3cc(O)c(OC)cc3c2=O)cc1O | < 50% |  | 
CC(C)=CCc1c(O)ccc2c1O[C@H](c1ccc3c(c1)C(O)C(O)C(C)(C)O3)CC2=O (some centres undefined) | < 50% |  | 
CCCCCCCCCCCCCCCC(=O)C1=C(O)[C@@H](CO)OC1=O |  | 4.6 µM | 
CC(C)=CCc1cc(C(=O)C2(c3cc(O)c(O)cc3/C=C3\Oc4c(ccc(O)c4CC=C(C)C)C3=O)Oc3cc(O)c(CC=C(C)C)cc3C2=O)ccc1O (centres undefined) [LICOAGRONE] |  | 6 µM | Activity [7]: Active; inhibition [4]: 4%; Kiuc [8]: 6.3 µM; inhibition [5]: > 70%
O=c1cc(-c2ccc(O)cc2)oc2c([C@@H]3O[C@H](CO)[C@@H](O)[C@H](O)[C@H]3O)c(O)c([C@@H]3O[C@H](CO)[C@@H](O)[C@H](O)[C@H]3O)c(O)c12 | < 50% |  | 
CC(C)=CCc1c(O)ccc2c1O[C@H](c1ccc3c(c1)CC(O)C(C)(C)O3)CC2=O (some centres undefined) |  | 52.2 µM | 
CC(C)=CCc1cc([C@H]2Oc3c(ccc(O)c3CC=C(C)C)C(=O)[C@@H]2O)ccc1O |  | 75.1 µM | 
COc1cc(O)cc2occ(-c3cc(O)c(O)c(CC=C(C)C)c3)c(=O)c12 |  |  | inhibition [4]: 4%; inhibition [5]: > 70%
CC(C)=CCc1cc([C@@H]2CC(=O)c3c(O)cc(O)c(CC=C(C)C)c3O2)ccc1O [LESPEDEZAFLAVANONE B] |  | 62.4 µM | 
